Ki and IC50 data for 33 molecules are collected here from patent US8772480B2, “Inhibitors of PI3 kinase and/or mTOR” (priority 2009, dated 2014).

One test deals with PI3Kα (Homo sapiens (Human), UniProt P42336). The settings on record: read-out: PI3Kα AlphaScreen ® Ki.
Test [1] concerns phosphorylation of Akt at Serine 473 in U87 MG cells. The experiment in a line: cells. As to conditions: Homo sapiens, U-87 MG, 2 h, read-out: U87Cell IC50, pAkt (Ser 473), U87 MG cells, two hours with compound.

Sequence of PI3Kα (P42336 whole entry): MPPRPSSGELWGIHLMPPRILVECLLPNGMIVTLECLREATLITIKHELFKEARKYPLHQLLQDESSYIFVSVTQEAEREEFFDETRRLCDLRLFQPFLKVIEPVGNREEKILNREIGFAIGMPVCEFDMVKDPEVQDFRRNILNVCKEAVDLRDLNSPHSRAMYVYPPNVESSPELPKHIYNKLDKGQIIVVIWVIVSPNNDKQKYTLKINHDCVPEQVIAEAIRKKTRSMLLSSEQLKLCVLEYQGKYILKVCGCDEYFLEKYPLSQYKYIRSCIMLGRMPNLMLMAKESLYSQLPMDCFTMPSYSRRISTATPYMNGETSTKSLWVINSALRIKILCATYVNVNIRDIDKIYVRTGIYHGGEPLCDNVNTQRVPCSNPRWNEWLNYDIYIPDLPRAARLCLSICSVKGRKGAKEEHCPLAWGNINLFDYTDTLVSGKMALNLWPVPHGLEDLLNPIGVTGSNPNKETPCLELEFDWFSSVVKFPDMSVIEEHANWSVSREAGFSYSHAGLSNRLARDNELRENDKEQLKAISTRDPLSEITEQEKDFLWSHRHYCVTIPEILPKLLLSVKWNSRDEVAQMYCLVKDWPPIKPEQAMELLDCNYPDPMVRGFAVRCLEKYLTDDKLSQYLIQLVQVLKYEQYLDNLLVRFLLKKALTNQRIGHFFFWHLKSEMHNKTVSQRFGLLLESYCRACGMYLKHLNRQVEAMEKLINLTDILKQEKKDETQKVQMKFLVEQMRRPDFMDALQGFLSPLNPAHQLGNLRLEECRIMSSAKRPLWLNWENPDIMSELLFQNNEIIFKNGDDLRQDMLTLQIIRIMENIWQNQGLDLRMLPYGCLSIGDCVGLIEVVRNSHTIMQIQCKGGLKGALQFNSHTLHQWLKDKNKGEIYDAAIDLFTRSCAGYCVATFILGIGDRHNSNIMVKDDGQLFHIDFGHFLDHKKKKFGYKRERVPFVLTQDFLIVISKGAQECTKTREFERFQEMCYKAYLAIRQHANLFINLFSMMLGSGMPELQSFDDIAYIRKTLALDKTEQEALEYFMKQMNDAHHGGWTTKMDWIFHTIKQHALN
Sequence of PI3Kα (P27986 whole entry partner): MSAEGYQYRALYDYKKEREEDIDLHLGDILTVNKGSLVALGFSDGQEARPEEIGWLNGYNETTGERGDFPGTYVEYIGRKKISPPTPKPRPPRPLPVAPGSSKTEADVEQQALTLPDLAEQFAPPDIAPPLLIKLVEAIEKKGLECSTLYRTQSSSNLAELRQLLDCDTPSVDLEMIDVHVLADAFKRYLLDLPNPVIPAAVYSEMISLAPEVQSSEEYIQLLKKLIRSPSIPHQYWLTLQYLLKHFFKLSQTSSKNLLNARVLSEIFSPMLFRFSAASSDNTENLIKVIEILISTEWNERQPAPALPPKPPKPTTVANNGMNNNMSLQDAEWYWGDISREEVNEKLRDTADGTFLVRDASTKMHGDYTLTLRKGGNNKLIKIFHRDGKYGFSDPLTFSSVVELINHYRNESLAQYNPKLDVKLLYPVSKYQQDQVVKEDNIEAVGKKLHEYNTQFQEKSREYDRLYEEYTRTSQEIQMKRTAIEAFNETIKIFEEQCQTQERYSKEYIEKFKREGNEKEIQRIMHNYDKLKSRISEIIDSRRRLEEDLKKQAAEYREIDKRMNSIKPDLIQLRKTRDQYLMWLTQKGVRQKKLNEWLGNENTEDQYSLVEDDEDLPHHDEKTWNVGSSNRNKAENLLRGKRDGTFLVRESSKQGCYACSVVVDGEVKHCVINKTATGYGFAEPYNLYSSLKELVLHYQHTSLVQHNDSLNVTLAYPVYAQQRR

For the molecule `COc1ncc(Nc2ncc([C@@H](C)N3CCOCC3)cc2-c2nc(C)nc(N)n2)cc1F` (single isomer, unassigned) [Example 291], the Ki on PI3Kα was determined as 37 nM. Moreover, the IC50 in test [1] is 7 nM. For `COc1ncc(Nc2ncc([C@H](C)N3CCOCC3)cc2-c2nc(C)nc(N)n2)cc1F` (single isomer, unassigned) [Example 292], at PI3Kα, the Ki came to 44 nM. Moreover, the IC50 in test [1] was 20 nM.

In the case of `Cc1nc(N)nc(-c2cc([C@H](C)N3CCOCC3)cnc2Nc2cnc(Cl)c(NS(C)(=O)=O)c2)n1` (single isomer, unassigned) [Example 372], the Ki on PI3Kα was 5 nM. The IC50 in test [1] was found to be 4 nM.

As for `Nc1cc(-c2cccnc2Nc2cccc3[nH]ncc23)nc(C(F)(F)F)n1` [Example 21, N-(3-(6-Amino-2-(Trifluoromethyl)Pyrimidin-4-yl)Pyridin-2-yl)-1H-Indazol-4-Amine], the Ki on PI3Kα came to 3140 nM. Still for that read-out and setting: to `Cc1nc(N)c(F)c(-c2cccnc2Nc2cccc3[nH]ncc23)n1` [Example 29, N-(3-(6-Amino-5-Fluoro-2-Methylpyrimidin-4-yl)Pyridin-2-yl)-1H-Indazol-4-Amine] belongs 802 nM.

In the case of `COc1ccc(Nc2ncc(CN3CCN(S(C)(=O)=O)CC3)cc2-c2ncnc(C)n2)cn1` [Example 34, N-(6-methoxypyridin-3-yl)-3-(4-methyl-1,3,5-triazin-2-yl)-5-((4-(methylsulfonyl)piperazin-1-yl)methyl)pyridin-2-amine], at PI3Kα, the Ki came out at 1580 nM. In addition, the IC50 in test [1] is > 10000 nM. On the same counts, the results for `Cc1nc(N)nc(-c2cc(CN3CCN(S(C)(=O)=O)CC3)cnc2Nc2cccc3[nH]ncc23)n1` [Example 36, N-(3-(4-amino-6-methyl-1,3,5-triazin-2-yl)-5-((4-(methylsulfonyl)piperazin-1-yl)methyl)pyridin-2-yl)-1H-indazol-4-amine] are 4 nM and 22 nM.

Take `Cc1nc(N)nc(-c2cc(CN3CCN(S(C)(=O)=O)CC3)cnc2Nc2cncnc2)n1` [Example 38, 4-Methyl-6-(5-((4-(Methylsulfonyl)Piperazin-1-yl)Methyl)-2-(Pyrimidin-5-Ylamino)Pyridin-3-yl)-1,3,5-Triazin-2-Amine]: the Ki on PI3Kα is 17 nM. In addition, in test [1], the IC50 came out at 145 nM. On the same counts, the results for `Cc1nc(N)nc(-c2cc(CN3CCN(S(C)(=O)=O)CC3)cnc2Nc2ccc3ncoc3c2)n1` [Example 39, N-(3-(4-Amino-6-Methyl-1,3,5-Triazin-2-yl)-5-((4-(Methylsulfonyl)Piperazin-1-yl)Methyl)Pyridin-2-yl)Benzo[D]Oxazol-6-Amine] are 55 nM and 46 nM. As for `Cc1nc(N)nc(-c2cccnc2Nc2ccc(Cl)nc2)n1` [Example 54, 4-(2-(6-Chloropyridin-3-Ylamino)Pyridin-3-yl)-6-Methyl-1,3,5-Triazin-2-Amine], the Ki at PI3Kα turned out to be 160 nM. Also, the IC50 in test [1] was determined as 674 nM. On the same counts, the results for `COc1ccc(Nc2ncc(CNc3cccnn3)cc2-c2nc(C)nc3[nH]cnc23)cn1` [Example 80, N-((6-(6-methoxypyridin-3-ylamino)-5-(2-methyl-9H-purin-6-yl)pyridin-3-yl)methyl)pyridazin-3-amine] are 33 nM and 305 nM. Regarding `COc1ccc(Nc2ncc(CNc3ccncc3)cc2-c2nc(C)nc3[nH]cnc23)cn1` [Example 81, N-(6-methoxypyridin-3-yl)-3-(2-methyl-9H-purin-6-yl)-5-((pyridin-4-ylamino)methyl)pyridin-2-amine], at PI3Kα, the Ki was found to be 42 nM. In addition, the IC50 in test [1] came out at 509 nM. Regarding `COc1ccc(Nc2ncc(CNc3ccccn3)cc2-c2nc(C)nc3[nH]cnc23)cn1` [Example 82, N-(6-methoxypyridin-3-yl)-3-(2-methyl-9H-purin-6-yl)-5-((pyridin-2-ylamino)methyl)pyridin-2-amine], the Ki at PI3Kα was determined as 25 nM. In addition, the IC50 in test [1] stood at 226 nM. Taken in the same sequence, the figures for `COc1ccc(Nc2ncc(CNc3ccccc3)cc2-c2nc(C)nc3[nH]cnc23)cn1` [Example 83, N-(6-methoxypyridin-3-yl)-3-(2-methyl-9H-purin-6-yl)-5-((phenylamino)methyl)pyridin-2-amine] were 45 nM and 700 nM. On the same counts, the results for `COC(=O)N1CCN(Cc2cnc(Nc3ccc(OC)nc3)c(-c3nc(C)nc4[nH]cnc34)c2)CC1` [Example 86, Methyl 4-((6-(6-Methoxypyridin-3-Ylamino)-5-(2-Methyl-9H-Purin-6-yl)Pyridin-3-yl)Methyl)Piperazine-1-Carboxylate] are 18 nM and 63 nM. In the case of `COc1ccc(Nc2nccnc2-c2nc(C)nc(N)n2)cn1` [Example 114, 4-(3-(6-methoxypyridin-3-ylamino)pyrazin-2-yl)-6-methyl-1,3,5-triazin-2-amine], the Ki at PI3Kα came to 327 nM. Still for that read-out and setting: to `COc1ccc(Nc2cnccc2-c2nc(C)nc(N)n2)cn1` [Example 115, 4-(3-(6-methoxypyridin-3-ylamino)pyridin-4-yl)-6-methyl-1,3,5-triazin-2-amine] belongs 868 nM.

Regarding `COc1ccc(Nc2nccnc2-c2cc(N)nc(C)n2)cn1` [Example 116, 6-(3-(6-methoxypyridin-3-ylamino)pyrazin-2-yl)-2-methylpyrimidin-4-amine], the Ki on PI3Kα came out at 59 nM. In the case of `COc1ccc(Nc2ncncc2-c2nc(C)nc(N)n2)cn1` [Example 117, 4-(4-(6-methoxypyridin-3-ylamino)pyrimidin-5-yl)-6-methyl-1,3,5-triazin-2-amine], the Ki on PI3Kα was 18 nM. On the same count and under the same terms, to `COc1ccc(Nc2ccccc2-c2nc(C)nc(N)n2)cn1` [Example 239, 4-(2-(6-Methoxypyridin-3-Ylamino)Phenyl)-6-Methyl-1,3,5-Triazin-2-Amine] belongs 396 nM. Same read-out and setting: to `COc1ncc(Nc2ncccc2-c2nc(C)nc(N)n2)cc1F` [Example 246, 4-(2-(5-Fluoro-6-Methoxypyridin-3-Ylamino)Pyridin-3-yl)-6-Methyl-1,3,5-Triazin-2-Amine] belongs 19 nM; to `COc1ncc(Nc2ncc(C(C)(C)O)cc2-c2nc(C)nc(N)n2)cc1F` [Example 273, 2-(5-(4-Amino-6-Methyl-1,3,5-Triazin-2-yl)-6-(5-Fluoro-6-Methoxypyridin-3-Ylamino)Pyridin-3-yl)Propan-2-ol], 4 nM; to `COc1ncc(Nc2ncc(C(C)(C)CO)cc2-c2nc(C)nc(N)n2)cc1F` [Example 311, 2-(5-(4-amino-6-methyl-1,3,5-triazin-2-yl)-6-(5-fluoro-6-methoxypyridin-3-ylamino)pyridin-3-yl)-2-methylpropan-1-ol], 8 nM. Turning to `COc1ncc(Nc2ncc(C(C)CO)cc2-c2nc(C)nc(N)n2)cc1F` (stereo not shown) [Example 312, 2-(5-(4-amino-6-methyl-1,3,5-triazin-2-yl)-6-(5-fluoro-6-methoxypyridin-3-ylamino)pyridin-3-yl)propan-1-ol], at PI3Kα, the Ki was found to be 2 nM.

Regarding `COc1ncc(Nc2ncc(C(O)C(F)(F)F)cc2-c2nc(C)nc(N)n2)cc1F` (stereo not shown) [Example 314, 1-(5-(4-Amino-6-Methyl-1,3,5-Triazin-2-yl)-6-(5-Fluoro-6-Methoxypyridin-3-Ylamino)Pyridin-3-yl)-2,2,2-Trifluoroethanol], the Ki at PI3Kα came out at 17 nM. On to `Cc1nc(N)nc(-c2cc(CN3CCOCC3)cnc2Nc2cnc(Cl)c(NS(C)(=O)=O)c2)n1` [Example 332, N-(5-(3-(4-Amino-6-Methyl-1,3,5-Triazin-2-yl)-5-(Morpholinomethyl)Pyridin-2-Ylamino)-2-Chloropyridin-3-yl)Methanesulfonamide], for which the Ki at PI3Kα amounted to 4 nM. For the molecule `Cc1nc(N)nc(-c2cc(CN3CCOCC3)cnc2Nc2cnc(Cl)c(NS(=O)(=O)N(C)C)c2)n1` [Example 333, N′-(5-((3-(4-Amino-6-Methyl-1,3,5-Triazin-2-yl)-5-(4-Morpholinylmethyl)-2-Pyridinyl)Amino)-2-Chloro-3-Pyridinyl)-N,N-Dimethylsulfamide], at PI3Kα, the Ki was 7 nM. The same measure, in the same setting: to `Cc1nc(N)nc(-c2cc(C(C)(C)O)cnc2Nc2cncc(F)c2)n1` [Example 352, 2-(5-(4-Amino-6-Methyl-1,3,5-Triazin-2-yl)-6-(5-Fluoropyridin-3-Ylamino)Pyridin-3-yl)Propan-2-ol] belongs 23 nM; to `COc1cncc(Nc2ncc(C(C)(C)O)cc2-c2nc(C)nc(N)n2)c1` [Example 353, 2-(5-(4-Amino-6-Methyl-1,3,5-Triazin-2-yl)-6-(5-Methoxypyridin-3-Ylamino)Pyridin-3-yl)Propan-2-ol], 15 nM; to `Cc1nc(N)nc(-c2cc(C(C)(C)O)cnc2Nc2cncc(S(=O)(=O)c3ccccc3)c2)n1` [Example 356, 2-(5-(4-Amino-6-Methyl-1,3,5-Triazin-2-yl)-6-(5-(Phenylsulfonyl)Pyridin-3-Ylamino)Pyridin-3-yl)Propan-2-ol], 58 nM. For the molecule `Cc1nc(N)cc(-c2cc(C(C)N3CCOCC3)cnc2Nc2cnc(Cl)c(NS(=O)(=O)N(C)C)c2)n1` (stereo not shown) [Example 379, N-(2-Chloro-5-(3-(6-Amino-2-Methylpyrimidin-4-yl)-5-(1-Morpholinoethyl)Pyridin-2-Ylamino)Pyridin-3-yl)-N,N-Dimethylaminosulfamide], the IC50 in test [1] was found to be 46 nM. On the same count and under the same terms, to `Cc1nc(N)cc(-c2cc([C@@H](C)N3CCOCC3)cnc2Nc2cnc(Cl)c(NS(=O)(=O)N(C)C)c2)n1` [Example 381, (R)—N-(2-Chloro-5-(3-(6-Amino-2-Methylpyrimidin-4-yl)-5-(1-Morpholinoethyl)Pyridin-2-Ylamino)Pyridin-3-yl)-N,N-Dimethylaminosulfamide] belongs 40 nM; to `Cc1nc(N)cc(-c2cc([C@H](C)N3CCOCC3)cnc2Nc2cnc(Cl)c(NS(=O)(=O)N(C)C)c2)n1` [Example 382, (S—)N-(2-Chloro-5-(3-(6-Amino-2-Methylpyrimidin-4-yl)-5-(1-Morpholinoethyl)Pyridin-2-Ylamino)Pyridin-3-yl)-N,N-Dimethylaminosulfamide], 23 nM.
